# Measured values as given in patent US7122533B2, “Cosalane compounds and methods for their use” (The United States of America as represented by the …, priority 1999, dated 2006).
# Experiments:
# Format in all cases: cell-based
# [1] = tested on: human monocytes (RANTES-induced migration); experiment: RANTES-induced monocyte migration (micro-chemotaxis chamber)
# Experimental: (§1) Human embryonic kidney cells 293 (HEK-293) transfected to express human CCR1, CCR3, or CCR5 receptors were cultured in Dulbecco's Modified Eagles Medium (DMEM, Biowhiftaker, Walkersville, Md.) containing 10% Fetal Bovine Serum (FBS, Hyclone, Logan, Utah), 2 mM glutamine and 100 U/ml penicillin and streptomycin (Quality Biologicals, Gaithersburg, Md.). Peripheral blood mononuclear cells were isolated from fresh normal donor apheresis packs by centrifugation over Ficoll. Monocytes were enriched by 85–95% using percoll fractionation (Pharmacia, Piscataway, N.J.).
# (§2) Monocyte chemotaxis was performed as previously described [Wang (1993) J. Immunol. 150:3022–3029]. Briefly, monocytes were resuspended in binding media (RPMI-1640 media containing 1% BSA, 25 mM HEPES, pH 8.0) at 1–2×10^6 cells/ml. Chemokines, diluted in binding media, were mixed with cosalane or the indicated cosalane analog and placed in the lower wells of a micro-chemotaxis chamber (Neuro Probe, Cabin John, Md.). Five micrometer polyvinyl-free polycarbonate membranes were placed over the chemokine mixtures. After the micro-chemotaxis chamber was assembled, 50 μl of cells were placed in the upper wells. The filled chemotaxis chambers were incubated in a humidified CO2 incubator for 90 minutes.
# (§3) After incubating, the membranes were removed from the chemotaxis chamber assembly followed by gently removing the cells from the upper side of the membrane. Then cells on the lower side of the membrane were stained.
# (§4) The number of cells migrating to the chemokine mixtures was determined for binding media alone, and chemokine treated and untreated cells. HEK-293 cells transfected to express human CCR1, CCR3 or CCR5 receptors were resuspended in binding media at 7.5×10^5 cells/ml. Ten μm polyvinyl-free polycarbonate membranes (Neuro Probe) were treated with 47 ug/ml rat tail collagen type 1 (Collaborative Biomedical Products, Bedford, Md.) in RPMI-1640 overnight, dried and placed over the chemoattractants. The assembled chemotaxis chambers were incubated in a humidified CO2 incubator for 5.5–6 hours. After the incubation, the membranes were removed from the chemotaxis chamber assembly followed by gently removing cells from the upper side of the membrane. The stained and dried membrane was mounted and the cells on the underside of the membrane were counted at 200× magnification. The results are reported as the average number of cells per high powered field at a given chemokine concentration±standard deviation.
# [2] = tested on: human monocytes (SDF-1α-induced migration; CXCR4 ligand); experiment: SDF-1α-induced monocyte/lymphocyte migration; settings: compound at 1 μM, FIG. 1
# Experimental: as §2, §3
# The number of cells migrating to the chemokine mixtures was determined for binding media alone, and chemokine treated and untreated cells. […] The stained and dried membrane was mounted and the cells on the underside of the membrane were counted at 200× magnification. […]
# The ability of the cosalane analogs 3 and 4 to block SDF-1α (a CXCR4 ligand) and RANTES (a CCR1, CCR3, and CCR5 ligand) induced migration of human monocytes or lymphocytes was initially evaluated. […]
# [3] = tested on: human monocytes (MIP1-β-induced migration); experiment: MIP1-β-induced monocyte migration; settings: compound at 1 μM, chemokine at 2.5 ng/ml, data not shown
# Experimental: as §2, with “Chemokines, diluted in binding media, were mixed with cosalane or the indicated cosalane analog and placed in the lower wells of a micro-chemotaxis chamber (Neuro Probe, Cabin John, Md.).” left out
# as §3
# as §4, with “magnification.” for “magnification. The results are reported as the average number of cells per high powered field at a given chemokine concentration±standard deviation.”
# (§5) It is noted that both MIP1-α and MIP1-β are ligands for CCR1, CCR5, and D6 (8).
# human CCR1 [4] = molecular target: T1, human CCR1 (Homo sapiens, UniProt P32246); experiment: RANTES-induced CCR1/HEK-293 transfectant migration
# T1 construct: expressed in transfected cells; host or cells: HEK-293
# T1 sequence (P32246 1-355): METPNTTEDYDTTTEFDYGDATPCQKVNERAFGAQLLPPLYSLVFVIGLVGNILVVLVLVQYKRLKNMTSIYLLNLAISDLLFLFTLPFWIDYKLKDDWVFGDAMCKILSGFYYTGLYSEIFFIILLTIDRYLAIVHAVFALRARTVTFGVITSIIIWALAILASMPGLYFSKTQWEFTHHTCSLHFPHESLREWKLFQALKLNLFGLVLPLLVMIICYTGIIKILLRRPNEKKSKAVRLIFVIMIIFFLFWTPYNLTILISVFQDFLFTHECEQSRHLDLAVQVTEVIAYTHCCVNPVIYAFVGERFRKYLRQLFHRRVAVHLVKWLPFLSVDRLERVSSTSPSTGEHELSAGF
# Experimental: as §1, with “Ficoll.” for “Ficoll. Monocytes were enriched by 85–95% using percoll fractionation (Pharmacia, Piscataway, N.J.).”
# as §4, with “magnification.” for “magnification. The results are reported as the average number of cells per high powered field at a given chemokine concentration±standard deviation.”
# [5] = tested on: MCP-4/CCR2-mediated monocyte migration; experiment: MCP-4-induced human monocyte migration; settings: FIG. 3
# Experimental: as §2, §3, §4
# Although MCP-4 is known to bind to CCR2 and CCR3, fresh primary human monocytes only express high levels of CCR2.
# human CCR1 [6] = molecular target: T1, human CCR1; experiment: MIP1β-induced migration of CCR1 transfectants; settings: compound at 1 μM, data not shown
# Experimental: as §1, §4
# (§6) The ability of compound 3 to inhibit RANTES-induced migration of human embryonic kidney (HEK) cells transfected to express individual chemokine receptors was initially tested. Although the cosalane analog 3 (1 μM) had no effect on RANTES-induced migration of CCR5 transfectants, it inhibited 50% of RANTES-induced CCR1 transfectant migration (FIG. 2). In contrast, the MIP1α- and MIP1β-induced migration of CCR1 transfectants was not inhibited by compounds 1, 2 or 3 when tested at concentrations of 1 μM (data not shown).
# [7] = tested on: human monocytes (MIP1-α-induced migration); experiment: MIP1-α-induced monocyte migration; settings: compound at 1 μM, chemokine at 2.5 ng/ml, data not shown
# Experimental: as §2, with “Chemokines, diluted in binding media, were mixed with cosalane or the indicated cosalane analog and placed in the lower wells of a micro-chemotaxis chamber (Neuro Probe, Cabin John, Md.).” left out
# as §3
# as §4, with “magnification.” for “magnification. The results are reported as the average number of cells per high powered field at a given chemokine concentration±standard deviation.”
# as §5
# [8] = tested on: human monocytes (acetylated RANTES-induced migration); experiment: monocyte migration induced by acetylated (modified) RANTES; settings: 10 μM compound; acetylated RANTES 50–1000 ng/mL, FIG. 6
# Experimental: as §2, §3
# as §4, with “deviation. […]” for “deviation.”
# human CCR1 [9] = molecular target: T1, human CCR1; experiment: MIP1α-induced migration of CCR1 transfectants; settings: compound at 1 μM, data not shown
# Experimental: as §1, §4, §6
# human CCR5 = molecular target: T2, human CCR5 (Homo sapiens, UniProt P51681); experiment: RANTES-induced CCR5/HEK-293 transfectant migration; settings: compound at 1 μM, FIG. 2
# T2 construct: expressed in transfected cells; host or cells: HEK-293
# T2 sequence (P51681 whole entry): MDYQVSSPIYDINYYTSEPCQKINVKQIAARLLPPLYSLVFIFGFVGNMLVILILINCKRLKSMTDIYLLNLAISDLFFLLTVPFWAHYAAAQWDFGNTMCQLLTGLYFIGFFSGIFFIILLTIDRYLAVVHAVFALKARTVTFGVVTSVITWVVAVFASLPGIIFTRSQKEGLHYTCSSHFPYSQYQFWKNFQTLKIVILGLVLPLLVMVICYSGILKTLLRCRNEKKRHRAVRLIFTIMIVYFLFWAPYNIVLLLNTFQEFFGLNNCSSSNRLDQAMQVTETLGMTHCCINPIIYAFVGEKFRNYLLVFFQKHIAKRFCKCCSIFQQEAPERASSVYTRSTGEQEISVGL
# Experimental: as §1
# as §4, with “After the incubation, the membranes were removed from the chemotaxis chamber assembly followed by gently removing cells from the upper side of the membrane.” left out, “The results are reported as the average number of cells per high powered field at a given chemokine concentration±standard deviation.” left out
compound,measurement,setting,value
CC(C)CCCC(C)[C@H]1CCC2C3CCC4C[C@@H](CCC=C(c5cc(Cl)c(OCc6ccccc6C(=O)O)c(C(=O)O)c5)c5cc(Cl)c(OCc6ccccc6C(=O)O)c(C(=O)O)c5)CC[C@]4(C)C3CC[C@@]21C (stereo partly shown) [Compound 3],IC50,"[1]; Homo sapiens, Monocyte, ≦ 5% standard error, NA = not active",3.9 µM
same,inhibition of RANTES-induced monocyte migration,"[1]; compound at 1 μM, FIG. 1",effective inhibitor
same,activity as inhibitors of RANTES-induced migration,[1]; discussion of Table 1,retain activity
same,inhibition of SDF-1α-induced monocyte migration,[2],effective inhibitor
same,inhibition of MIP1-β-induced monocyte migration,[3],neither MiP1-α- nor MIP1-β-induced monocyte migration was inhibited
same,inhibition at 1 µM,"human CCR1 [4]; HEK293, compound at 1 μM, FIG. 2",50%
same,IC50,"human CCR1 [4]; ≦ 5% standard error, NA = not active, read-out: IC50 (μM) RANTES-Induced CCRI/HEK Migration",0.26 µM
same,block of MCP-4/CCR2-mediated monocyte migration,[5],block
same,inhibition of MIP1β-induced migration of CCR1 transfectants,human CCR1 [6],not inhibited
same,inhibition of MIP1-α-induced monocyte migration,[7],neither MiP1-α- nor MIP1-β-induced monocyte migration was inhibited
same,inhibition of the activity of modified (acetylated) RANTES to attract monocytes,[8],not inhibited
same,inhibition of MIP1α-induced migration of CCR1 transfectants,human CCR1 [9],not inhibited
same,effect on RANTES-induced migration of CCR5 transfectants,human CCR5,no effect
